Common to all, as to assay: CA Activity Assay
Conditions in all cases: pH 7.4; 25 °C

One experiment concerns the target Carbonic anhydrase 6 (Homo sapiens, UniProt P23280). How it is done: (§1) The enzymatic reaction, in a total volume of 3.0 mL, contained 1.4 mL 0.05M Tris-SO4 buffer (pH 7.4), 1mL 3 mM 4-nitrophenylacetate, 0.5 mL H2O and 0.1mL enzyme solution. A reference measurement was obtained by preparing the same cuvette without enzyme solution. The inhibitory effects of the sulphonamide derivatives were examined. All compounds were tested in triplicate at each concentration used. Different concentrations of the compounds were used.

The target of another experiment is Carbonic anhydrase 1 (Homo sapiens, UniProt P00915). How it is done: as §1
Chain of Carbonic anhydrase 1 (P00915 whole entry): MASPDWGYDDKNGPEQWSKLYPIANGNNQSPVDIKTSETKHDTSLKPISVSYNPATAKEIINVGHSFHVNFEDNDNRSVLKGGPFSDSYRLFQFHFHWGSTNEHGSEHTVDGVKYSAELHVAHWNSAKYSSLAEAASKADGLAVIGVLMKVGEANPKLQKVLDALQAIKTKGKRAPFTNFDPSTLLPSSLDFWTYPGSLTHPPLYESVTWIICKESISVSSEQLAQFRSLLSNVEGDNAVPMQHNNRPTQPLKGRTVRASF
A further experiment has as its target Carbonic anhydrase 2 (Homo sapiens, UniProt P00918). How it is done:
as §1

One may read the Ki as the equilibrium dissociation constant of an inhibitor or competing ligand from its target. A high value points to weaker binding.

Chain of Carbonic anhydrase 6 (P23280 whole entry): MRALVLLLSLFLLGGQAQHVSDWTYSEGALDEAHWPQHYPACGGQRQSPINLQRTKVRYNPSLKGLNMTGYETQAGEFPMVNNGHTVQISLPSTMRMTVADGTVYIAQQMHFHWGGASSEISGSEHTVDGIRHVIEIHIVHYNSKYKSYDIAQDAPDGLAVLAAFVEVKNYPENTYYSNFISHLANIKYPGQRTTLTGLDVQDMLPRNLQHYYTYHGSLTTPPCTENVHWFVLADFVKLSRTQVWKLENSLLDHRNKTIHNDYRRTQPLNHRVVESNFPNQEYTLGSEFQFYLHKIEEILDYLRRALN

For `Nc1ccc(S(N)(=O)=O)cc1` [aromatic sulfonamide compound 5], the Ki at Carbonic anhydrase 6 was found to be 1.21 µM.

Turning to `CCOC1Oc2c(Br)cccc2C(=O)/C1=C\Nc1ccc(S(N)(=O)=O)cc1` (centres undefined) [hCA inhibitor, 3], the Ki at Carbonic anhydrase 1 is 48.1 µM; on Carbonic anhydrase 2, 1.13 µM; at Carbonic anhydrase 6, 2.24 µM.

Take `Cc1ccc(S(N)(=O)=O)cc1`: the Ki at Carbonic anhydrase 1 stood at 118 µM; on Carbonic anhydrase 6, 21.2 µM.

`CCOC1Oc2ccccc2C(=O)/C1=C\Nc1ccc(S(N)(=O)=O)cc1` (centres undefined) [hCA inhibitor, 1]: the Ki came out at 13.7 µM at Carbonic anhydrase 1, 0.228 µM at Carbonic anhydrase 2 and 0.943 µM at Carbonic anhydrase 6.

`NCc1ccc(S(N)(=O)=O)cc1` [aromatic sulfonamide compound 6] displayed a Ki on Carbonic anhydrase 6 of 1.01 µM.

For the compound `CCOC1Oc2c(Br)cc(Br)cc2C(=O)/C1=C\Nc1ccc(S(N)(=O)=O)cc1` (centres undefined) [hCA inhibitor, 4], the Ki is 71.2 µM at Carbonic anhydrase 1, 1.86 µM on Carbonic anhydrase 2 and 4.28 µM on Carbonic anhydrase 6.

Regarding `NS(=O)(=O)c1ccccc1`, affinity on Carbonic anhydrase 6 was put at a Ki of 4.11 µM.

For the origin of these results see BindingDB's records for doi:10.3109/14756366.2011.614607 (Ondokuz Mayis University, 2012).
